Data taken from patent publication US10519125B2, “Flavagline derivatives” (PIERRE FABRE MEDICAMENT, priority 2014, dated 2019).
Like-named read-outs stand apart in the source and are kept apart here.

Tests used:
[1] = test system: HCT116 line (human colon cancer cell line); assay: Antiproliferative (cytotoxic) activity on HCT116 line, ATPLite cell viability, 72 hours; type: cell-based; conditions: read-out: HCT116 (EC50)
Method: 2.1. Antiproliferative Activity of the Compounds According to the Invention (IC50 in M)
Culture of Lines and Measurement of Cell Viability:
The HCT116 line (ATCC, CCL-247) derived from colon cancer was cultured in MEM (Minimum Essential Medium Eagle) supplemented with 2 mM L-glutamine (Sigma, G7513), 5% fetal calf serum (Sigma, F7524) and antibiotics (Sigma, A59-55). The protocol for determining cytotoxic activity consists in seeding cells on 96-well plates (Perkin Elmer, 6005668) at a density of 1500 cells per well. After 24 hours of incubation, the test compound is applied in each well, using serial dilutions in the solvent dimethylsulfoxide (DMSO) (Sigma, D8418), from 10 mM stock solutions in 100% DMSO. Each dilution was added to the cells 24 hours after seeding. Under these conditions, the final solvent concentration is 0.1% DMSO. A reading of cell proliferation was carried out 72 hours after addition of the products with the ATPLite™ kit (Perkin Elmer, 6016947) and according to the manufacturer's recommendations. The analysis of the proliferation results was carried out by comparison with conditions where only the carrier solvent (culture medium, 0.1% DMSO) was added to the cells. The dose-response curves obtained were analyzed using the PRISM 4.03 software (GraphPad Software Inc.), or by an equivalent analytical method, to determine the concentration of each compound which inhibits 50% of cell proliferation (EC50).
By way of example, the cytotoxic properties of several compounds of the invention evaluated on the HCT116 line (human colon cancer cell line) are reported in Table 1.

[2] = test system: MDA-MB-231 human tumor xenograft; assay: Antitumor activity, subcutaneous MDA-MB-231 breast cancer xenografts in SCID mice; type: in vivo; conditions: for Activity: q1d5 × 3, MDA-MB-231; for Deaths (%): q1d5 × 3, SCID mice
Method: Subcutaneous xenografts were established with MDA-MD-231 breast cancer cells (ATCC: HTB-26) in SCID mice (Harlan, U.K.). The animals were treated and cared after in accordance with the Guide For the Care and Use of Laboratory Animals (National Research Council, 1996) and with European Directive 86/609/EEC, under the supervision of a staff expert authorized to conduct experimental studies with laboratory animals.
All the experiments were conducted pursuant to French and local regulations (Department of Veterinary Services, Haute-Garonne, Toulouse) according to the directives of an ethics committee, based on the UKCCCR Guidelines for the Welfare of Animals in Experimental Neoplasia, as indicated above. The implantation of MDA-MB-231 human tumor fragments is carried subcutaneously in the flanks of SCID mice using a trocar and, for the study of tumor growth, the tumors are allowed to reach a median volume of 70-130 mm^3 before starting the studies.
After randomization in the treatment cages, the inhibitors were administered intravenously according to a g1d5×3 treatment scheme (5 injections per week for 3 weeks). The mice were monitored and weighed daily. The tumors were measured with a slide caliper and the tumor volumes (mm^3) were estimated using the following formula: volume=0.5 (length×width^2). Each experimental group consists of 5 individuals. The efficacy of the treatment was evaluated by analysis of the measurement of the median volume of the treated tumors compared with the median volume of the tumors receiving only carrier (control). The T/C evaluation criterion corresponds to: [(median volume of the treated group, T/median volume of the control group, C)×100]. This T/C ratio is expressed as a percentage. The optimal T/C value corresponds to the ratio which reflects the maximum inhibition of growth obtained during the study. The maximum gains or losses of weight, expressed as a percentage of the initial weight of the animals, as well as the percentage of drug-related deaths (i.e., the percentage of treated animals that died before the assessment) were used to provide an evaluation of the toxicity of the compounds. In accordance with the NCI (National Cancer Institute) criterion, a dose is deemed toxic if it induces weight loss greater than −20% relative to the initial weight of the mouse or if it induces more than 20% deaths (Corbett et al. J Exp Ther Oncol 1996, 1:95-108).

[3] = HCT-116, HCT116, 72 hours after addition, ATPLite
[4] = Mus musculus, MDA-MB-231, iv, read-out: Opt. T/C (%)

COC(=O)[C@H]1[C@@H](O)[C@@]2(O)c3c(OC)cc(OCCCCN(C)C)cc3O[C@@]2(c2ccc(OC)cc2)[C@@H]1c1ccccc1 (racemic) [Compound 52, rac-methyl (1R,2R,3S,3aR,8bS)-6-(4-(dimethylamino)butoxy)-1,8b-dihydroxy-8-methoxy-3a-(4-methoxyphenyl)-3-phenyl-2,3,3a,8b-tetrahydro-1H-cyclopenta[b]benzofuran-2-carboxylate]
EC50 [1, 3]: 4.9 nM

COc1ccc([C@@]23Oc4cc(OC)cc(OC)c4[C@]2(O)[C@H](O)[C@H](c2nnc(N)o2)[C@H]3c2ccccc2)cc1 (racemic) [Compound 18, rac-(1R,2R,3S,3aR,8bS)-2-(5-amino-1,3,4-oxadiazol-2-yl)-6,8-dimethoxy-3a-(4-methoxyphenyl)-3-phenyl-2,3,3a,8b-tetrahydro-1H-cyclopenta[b]benzofuran-1,8b-diol]
Activity ([2]; 2.5 mg/kg intravenously): Active | Deaths (%) ([2]; 2.5 mg/kg intravenously): 0% | Activity ([2]; 3.5 mg/kg intravenously): Active | Deaths (%) ([2]; 3.5 mg/kg intravenously): 0% | response vs control in vivo at 2.5 mg/kg [2, 4]: 40% | response vs control in vivo at 3.5 mg/kg [2, 4]: 6%

CN[C@H]1[C@@H](O)[C@@]2(O)c3c(OC)cc(OC)cc3O[C@@]2(c2ccc(OC)cc2)[C@@H]1c1ccccc1 (racemic) [Compound 15, rac-(1R,2R,3R,3aR,8bS)-6,8-dimethoxy-3a-(4-methoxyphenyl)-2-(methylamino)-3-phenyl-1,2,3,3a-tetrahydro-8bH-cyclopenta[b]benzofuran-1,8b-diol]
EC50 [1, 3]: 3.83 nM

CNc1nnc([C@H]2[C@@H](O)[C@@]3(O)c4c(OC)cc(OC)cc4O[C@@]3(c3ccc(OC)cc3)[C@@H]2c2ccccc2)o1 (racemic) [Compound 24, rac-(1R,2R,3S,3aR,8bS)-6,8-dimethoxy-3a-(4-methoxyphenyl)-2-(5-(methylamino)-1,3,4-oxadiazol-2-yl)-3-phenyl-2,3,3a,8b-tetrahydro-1H-cyclopenta[b]benzofuran-1,8b-diol]
Activity ([2]; 2.8 mg/kg intravenously): Active | Deaths (%) ([2]; 2.8 mg/kg intravenously): 0% | response vs control in vivo at 2.8 mg/kg [2, 4]: 25%

COc1ccc([C@@]23Oc4cc(OC)cc(OC)c4[C@]2(O)[C@H](O)[C@H](c2nnc(N)o2)[C@H]3c2ccccc2)cc1 [Compound 19, (1R,2R,3S,3aR,8bS)-2-(5-amino-1,3,4-oxadiazol-2-yl)-6,8-dimethoxy-3a-(4-methoxyphenyl)-3-phenyl-2,3,3a,8b-tetrahydro-1H-cyclopenta[b]benzofuran-1,8b-diol]
Activity ([2]; 1.3 mg/kg intravenously): Active | Deaths (%) ([2]; 1.3 mg/kg intravenously): 0% | response vs control in vivo at 1.3 mg/kg [2, 4]: 26%

COc1ccc([C@@]23Oc4cc(OC)cc(OC)c4[C@]2(O)[C@@H]2OC(=O)N[C@@H]2[C@H]3c2ccccc2)cc1 (racemic) [Compound 40, rac-(3aR,4R,4aR,9bS,9cR)-9b-hydroxy-7,9-dimethoxy-4a-(4-methoxyphenyl)-4-phenyl-3,3a,4,4a,9b,9c-hexahydro-2H-benzofuro[3′,2′:3,4]cyclopenta[1,2-d]oxazol-2-one]
EC50 [1, 3]: 2.52 nM

COc1ccc([C@@]23Oc4cc(OCCN5CCN(C)CC5)cc(OC)c4[C@]2(O)[C@H](O)[C@H](c2nnc(N)o2)[C@H]3c2ccccc2)cc1 (racemic) [Compound 22, rac-(1R,2R,3S,3aR,8bS)-2-(5-amino-1,3,4-oxadiazol-2-yl)-8-methoxy-3a-(4-methoxyphenyl)-6-(2-(4-methylpiperazin-1-yl)ethoxy)-3-phenyl-2,3,3a,8b-tetrahydro-1H-cyclopenta[b]benzofuran-1,8b-diol]
Activity ([2]; 1.4 mg/kg intravenously): Active | Deaths (%) ([2]; 1.4 mg/kg intravenously): 0% | response vs control in vivo at 1.4 mg/kg [2, 4]: 21%

COc1ccc([C@@]23Oc4cc(OC)cc(OC)c4[C@]2(O)[C@H](O)[C@H](c2nnc(C)[nH]2)[C@H]3c2ccccc2)cc1 (racemic) [Compound 30, rac-(1R,2S,3S,3aR,8bS)-6,8-dimethoxy-3a-(4-methoxyphenyl)-2-(5-methyl-4H-1,2,4-triazol-3-yl)-3-phenyl-2,3,3a,8b-tetrahydro-1H-cyclopenta[b]benzofuran-1,8b-diol]
Activity ([2]; 0.7 mg/kg intravenously): Active | Deaths (%) ([2]; 0.7 mg/kg intravenously): 0% | response vs control in vivo at 0.7 mg/kg [2, 4]: 15%

COc1ccc([C@@]23Oc4cc(OCCCC(O)CO)cc(OC)c4[C@]2(O)[C@@H]2OC(=O)N[C@@H]2[C@H]3c2ccccc2)cc1 (mixture of isomers) [Compound 41, rac-(3aR,4R,4aR,9bS,9cR)-7-((4,5-dihydroxypentyl)oxy)-9b-hydroxy-9-methoxy-4a-(4-methoxyphenyl)-4-phenyl-3,3a,4,4a,9b,9c-hexahydro-2H-benzofuro[3′,2′:3,4]cyclopenta[1,2-d]oxazol-2-one]
EC50 [1, 3]: 4.2 nM

COC(=O)[C@H]1[C@@H](O)[C@@]2(O)c3c(OC)cc(OCCCCN)cc3O[C@@]2(c2ccc(OC)cc2)[C@@H]1c1ccccc1 [Compound 50, methyl (1R,2R,3S,3aR,8bS)-6-(4-aminobutoxy)-1,8b-dihydroxy-8-methoxy-3a-(4-methoxyphenyl)-3-phenyl-2,3,3a,8b-tetrahydro-1H-cyclopenta[b]benzofuran-2-carboxylate]
EC50 ([1]; HCT-116, 72 h): 1.22 nM

COc1ccc([C@@]23Oc4cc(OC)cc(OC)c4[C@]2(O)[C@@H]2OC(N)=N[C@@H]2[C@H]3c2ccccc2)cc1 (racemic) [Compound 47, rac-(3aR,4R,4aR,9bS,9cR)-2-amino-7,9-dimethoxy-4a-(4-methoxyphenyl)-4-phenyl-4,4a,9b,9c-tetrahydro-3aH-benzofuro[3′,2′:3,4]cyclopenta[1,2-d]oxazol-9b-ol]
EC50 [1, 3]: 1.1 nM

COc1ccc([C@@]23Oc4cc(OCCCCO)cc(OC)c4[C@]2(O)[C@@H]2OC(=O)N[C@@H]2[C@H]3c2ccccc2)cc1 (racemic) [Compound 42, rac-(3aR,4R,4aR,9bS,9cR)-9b-hydroxy-7-(4-hydroxybutoxy)-9-methoxy-4a-(4-methoxyphenyl)-4-phenyl-3,3a,4,4a,9b,9c-hexahydro-2H-benzofuro[3′,2′:3,4]cyclopenta[1,2-d]oxazol-2-one]
EC50 [1, 3]: 2.16 nM

COC(=O)[C@H]1[C@@H](O)[C@@]2(O)c3c(OC)cc(OCCCCN)cc3O[C@@]2(c2ccc(OC)cc2)[C@@H]1c1ccccc1 (racemic) [Compound 8, rac-(1R,2R,3S,3aR,8bS)-methyl 6-(4-aminobutoxy)-1,8b-dihydroxy-8-methoxy-3a-(4-methoxyphenyl)-3-phenyl-2,3,3a,8b-tetrahydro-1H-cyclopenta[b]benzofuran-2-carboxylate]
EC50 ([1]; HCT-116, 72 h): 2.61 nM

COc1ccc([C@@]23Oc4cc(OCCN(C)C)cc(OC)c4[C@]2(O)[C@H](O)[C@H](c2nnc(N)o2)[C@H]3c2ccccc2)cc1 (racemic) [Compound 21, rac-(1R,2R,3S,3aR,8bS)-2-(5-amino-1,3,4-oxadiazol-2-yl)-6-(2-(dimethylamino)ethoxy)-8-methoxy-3a-(4-methoxyphenyl)-3-phenyl-2,3,3a,8b-tetrahydro-1H-cyclopenta[b]benzofuran-1,8b-diol]
Activity ([2]; 1 mg/kg intravenously): Active | Deaths (%) ([2]; 1 mg/kg intravenously): 0% | response vs control in vivo at 1 mg/kg [2, 4]: 22%
